Test results taken from patent publication US20060069132A1, “Azolecarboxamide herbicides” (priority 2004, published 2006).

Key:
Assay in all cases: Test E pre-/postemergence herbicide test
bermudagrass = assay type: in vivo, Cynodon dactylon
Text: (§1) Seeds of plant species selected from bipinnate beggarticks (Bidens bipinnata L.), hairy beggarticks (Bidens radiata Thuill.), bermudagrass (Cynodon dactylon (L.) Pers.), Surinam grass (Urochloa decumbens (Staph) R. D. Webster, previously named Brachiaria decumbens Stapf), large crabgrass (Digitaria sanguinalis (L.) Scop.), green foxtail (Setaria viridis (L.) P. Beauv.), goosegrass (Eleusine indica (L.) Gaertn.), johnsongrass (Sorghum halepense (L.) Pers.), kochia (Kochia scoparia (L.) Schrad.), pitted morningglory (Ipomoea lacunosa L.), purple nutsedge (Cyperus rotundus L.), common ragweed (Ambrosia elatior L.), mustard (Brassica nigra (L.) W. D. J. Koch), guineagrass (Panicum maximum Jacq.), dallisgrass (Paspalum dilatatum Poir.), barnyardgrass (Echinochloa crus-galli (L). P. Beauv.), southern sandbur (Cenchrus echinatus L.), common sowthistle (Sonchus oleraceous L.), prickly sida (Sida spinosa L.), Italian ryegrass (Lolium multiflorum Lam.), common purslane (Portulaca oleracea L.), broadleaf signalgrass (Brachiaria platyphylla (Griseb.) Nash), common groundsel (Senecio vulgaris L.), common chickweed (Stellaria media (L.) Vill/Cyr.), tropical spiderwort (Commelina benghalensis L.), annual bluegrass (Poa annua L.), downy bromegrass (Bromus tectorum L.), itchgrass (Rottboellia cochinchinensis (L.) L.f.), quackgrass (Elytrigia repens (L.) Nevski), Canada horseweed (Erigeron Canadensis L.), field bindweed (Convolvulus arvensis L.), spotted spurge (Euphorbia maculata L.), common mallow (Malva sylvestris (=s silvestris) L.), and Russian thistle (Salsola kali L. ssp. Ruthenica (Iljin) Soo) were planted and treated preemergence with test chemicals formulated in a non-phytotoxic solvent mixture which included a surfactant.
(§2) At the same time, plants selected from these weed species were treated with postemergence applications of some of the test chemicals formulated in the same manner. Plants ranged in height from 2 to 18 cm (1- to 4-leaf stage) for postemergence treatments. Treated plants and controls were maintained in a greenhouse for 12 to 14 days, after which time all species were compared to controls and visually evaluated. Plant response ratings, summarized in Table E, are based on a scale of 0 to 100 where 0 is no effect and 100 is complete control. A dash (-) response means no test result.

dallisgrass = assay type: in vivo, Paspalum dilatatum
Text: as §1, §2

southern sandbur = assay type: in vivo, Cenchrus echinatus
Text: as §1, §2

Surinam grass = assay type: in vivo, Urochloa decumbens
Text: as §1, §2

green foxtail = assay type: in vivo, Setaria viridis
Text: as §1, §2

broadleaf signalgrass = assay type: in vivo, Brachiaria platyphylla
Text: as §1, §2

field bindweed = assay type: in vivo, Convolvulus arvensis
Text: as §1, §2

guineagrass = assay type: in vivo, Panicum maximum
Text: as §1, §2

Italian ryegrass = assay type: in vivo, Lolium multiflorum
Text: as §1, §2

[1] = Preemergence, 125 g ai/ha, scale 0 to 100
[2] = Preemergence, 250 g ai/ha, scale 0 (no effect) to 100 (complete control)
[3] = Preemergence, 375 g ai/ha, scale 0 (no effect) to 100 (complete control)
[4] = Preemergence, 500 g ai/ha, scale 0 (no effect) to 100 (complete control)
[5] = Postemergence, 500 g ai/ha, scale 0 to 100
[6] = Postemergence, 250 g ai/ha, scale 0 to 100
[7] = postemergence, 125 g ai/ha, scale 0 to 100
[8] = postemergence, 62 g ai/ha, scale 0 to 100
[9] = Preemergence, 62 g ai/ha, scale 0 to 100

CCc1nn(C(C)(C)C)cc1C(=O)Nc1cc(C(=O)N(C)C)ccn1 [Compound 293]
Plant response rating, Bermudagrass (bermudagrass; [1]): 90 | Plant response rating, Bermudagrass (bermudagrass; [2]): 95 | Plant response rating, Bermudagrass (bermudagrass; [3]): 95 | Plant response rating, Bermudagrass (bermudagrass; [4]): 95 | Plant response rating, Dallisgrass (dallisgrass; [1]): 60 | Plant response rating, Dallisgrass (dallisgrass; [2]): 95 | Plant response rating, Dallisgrass (dallisgrass; [3]): 95 | Plant response rating, Dallisgrass (dallisgrass; [4]): 100 | Plant response rating, Sandbur (southern sandbur; [1]): 10 | Plant response rating, Sandbur (southern sandbur; [2]): 100 | Plant response rating, Sandbur (southern sandbur; [3]): 100 | Plant response rating, Sandbur (southern sandbur; [4]): 100 | Plant response rating, Surinam Grass (Surinam grass; [1]): 80 | Plant response rating, Surinam Grass (Surinam grass; [3]): 100 | Plant response rating, Surinam Grass (Surinam grass; [4]): 100 | Plant response rating, Foxtail, Green (green foxtail; [1]): 50 | Plant response rating, Foxtail, Green (green foxtail; [2]): 95 | Plant response rating, Foxtail, Green (green foxtail; [3]): 95 | Plant response rating, Foxtail, Green (green foxtail; [4]): 100 | Plant response rating, Signalgrass (broadleaf signalgrass; [1]): 50 | Plant response rating, Signalgrass (broadleaf signalgrass; [2]): 95 | Plant response rating, Signalgrass (broadleaf signalgrass; [3]): 95 | Plant response rating, Signalgrass (broadleaf signalgrass; [4]): 100 | Plant response rating, Bindweed, Field (field bindweed; [1]): 40 | Plant response rating, Bindweed, Field (field bindweed; [2]): 60 | Plant response rating, Bindweed, Field (field bindweed; [3]): 95 | Plant response rating, Bindweed, Field (field bindweed; [4]): 95 | Plant response rating, Guineagrass (guineagrass; [1]): 100 | Plant response rating, Guineagrass (guineagrass; [2]): 100 | Plant response rating, Guineagrass (guineagrass; [3]): 100 | Plant response rating, Guineagrass (guineagrass; [4]): 100 | Plant response rating, Ryegrass, Italian (Italian ryegrass; [1]): 60 | Plant response rating, Ryegrass, Italian (Italian ryegrass; [2]): 95 | Plant response rating, Ryegrass, Italian (Italian ryegrass; [3]): 95 | Plant response rating, Ryegrass, Italian (Italian ryegrass; [4]): 100

CCn1nc(C(C)(C)C)cc1C(=O)Nc1cc(C(=S)N(C)C)ccc1F [Compound 294]
Plant response rating, Bermudagrass (bermudagrass; [5]): 75 | Plant response rating, Bermudagrass (bermudagrass; [6]): 75 | Plant response rating, Bermudagrass (bermudagrass; [1]): 90 | Plant response rating, Bermudagrass (bermudagrass; [2]): 95 | Plant response rating, Bermudagrass (bermudagrass; [3]): 95 | Plant response rating, Bermudagrass (bermudagrass; [4]): 95 | Plant response rating, Bermudagrass (bermudagrass; [7]): 50 | Plant response rating, Bermudagrass (bermudagrass; [8]): 20 | Plant response rating, Dallisgrass (dallisgrass; [5]): 70 | Plant response rating, Dallisgrass (dallisgrass; [6]): 60 | Plant response rating, Dallisgrass (dallisgrass; [1]): 75 | Plant response rating, Dallisgrass (dallisgrass; [2]): 80 | Plant response rating, Dallisgrass (dallisgrass; [3]): 95 | Plant response rating, Dallisgrass (dallisgrass; [4]): 95 | Plant response rating, Dallisgrass (dallisgrass; [7]): 40 | Plant response rating, Dallisgrass (dallisgrass; [8]): 10 | Plant response rating, Sandbur (southern sandbur; [5]): 80 | Plant response rating, Sandbur (southern sandbur; [6]): 75 | Plant response rating, Sandbur (southern sandbur; [1]): 70 | Plant response rating, Sandbur (southern sandbur; [2]): 80 | Plant response rating, Sandbur (southern sandbur; [3]): 95 | Plant response rating, Sandbur (southern sandbur; [4]): 100 | Plant response rating, Sandbur (southern sandbur; [7]): 50 | Plant response rating, Sandbur (southern sandbur; [8]): 10 | Plant response rating, Surinam Grass (Surinam grass; [5]): 85 | Plant response rating, Surinam Grass (Surinam grass; [6]): 80 | Plant response rating, Surinam Grass (Surinam grass; [1]): 95 | Plant response rating, Surinam Grass (Surinam grass; [3]): 100 | Plant response rating, Surinam Grass (Surinam grass; [4]): 100 | Plant response rating, Surinam Grass (Surinam grass; [7]): 70 | Plant response rating, Surinam Grass (Surinam grass; [8]): 30 | Plant response rating, Foxtail, Green (green foxtail; [5]): 85 | Plant response rating, Foxtail, Green (green foxtail; [6]): 80 | Plant response rating, Foxtail, Green (green foxtail; [1]): 80 | Plant response rating, Foxtail, Green (green foxtail; [2]): 100 | Plant response rating, Foxtail, Green (green foxtail; [3]): 100 | Plant response rating, Foxtail, Green (green foxtail; [4]): 100 | Plant response rating, Foxtail, Green (green foxtail; [7]): 60 | Plant response rating, Foxtail, Green (green foxtail; [8]): 40 | Plant response rating, Signalgrass (broadleaf signalgrass; [5]): 70 | Plant response rating, Signalgrass (broadleaf signalgrass; [6]): 50 | Plant response rating, Signalgrass (broadleaf signalgrass; [1]): 50 | Plant response rating, Signalgrass (broadleaf signalgrass; [2]): 70 | Plant response rating, Signalgrass (broadleaf signalgrass; [3]): 80 | Plant response rating, Signalgrass (broadleaf signalgrass; [4]): 80 | Plant response rating, Signalgrass (broadleaf signalgrass; [7]): 30 | Plant response rating, Signalgrass (broadleaf signalgrass; [8]): 30 | Plant response rating, Bindweed, Field (field bindweed; [5]): 70 | Plant response rating, Bindweed, Field (field bindweed; [6]): 50 | Plant response rating, Bindweed, Field (field bindweed; [1]): 10 | Plant response rating, Bindweed, Field (field bindweed; [2]): 90 | Plant response rating, Bindweed, Field (field bindweed; [3]): 95 | Plant response rating, Bindweed, Field (field bindweed; [4]): 100 | Plant response rating, Bindweed, Field (field bindweed; [7]): 50 | Plant response rating, Bindweed, Field (field bindweed; [8]): 10 | Plant response rating, Guineagrass (guineagrass; [5]): 85 | Plant response rating, Guineagrass (guineagrass; [6]): 80 | Plant response rating, Guineagrass (guineagrass; [1]): 90 | Plant response rating, Guineagrass (guineagrass; [2]): 100 | Plant response rating, Guineagrass (guineagrass; [3]): 100 | Plant response rating, Guineagrass (guineagrass; [4]): 100 | Plant response rating, Guineagrass (guineagrass; [7]): 70 | Plant response rating, Guineagrass (guineagrass; [8]): 50 | Plant response rating, Ryegrass, Italian (Italian ryegrass; [5]): 95 | Plant response rating, Ryegrass, Italian (Italian ryegrass; [6]): 95 | Plant response rating, Ryegrass, Italian (Italian ryegrass; [1]): 80 | Plant response rating, Ryegrass, Italian (Italian ryegrass; [2]): 100 | Plant response rating, Ryegrass, Italian (Italian ryegrass; [3]): 100 | Plant response rating, Ryegrass, Italian (Italian ryegrass; [4]): 100 | Plant response rating, Ryegrass, Italian (Italian ryegrass; [7]): 80 | Plant response rating, Ryegrass, Italian (Italian ryegrass; [8]): 70

CCn1nc(C2(C)CC2)cc1C(=O)Nc1cc(C(=O)N(C)C)ccc1F [Compound 299]
Plant response rating, Bermudagrass (bermudagrass; [5]): 80 | Plant response rating, Bermudagrass (bermudagrass; [6]): 70 | Plant response rating, Bermudagrass (bermudagrass; [9]): 80 | Plant response rating, Bermudagrass (bermudagrass; [1]): 100 | Plant response rating, Bermudagrass (bermudagrass; [2]): 100 | Plant response rating, Bermudagrass (bermudagrass; [4]): 95 | Plant response rating, Bermudagrass (bermudagrass; [7]): 50 | Plant response rating, Bermudagrass (bermudagrass; [8]): 40 | Plant response rating, Dallisgrass (dallisgrass; [5]): 85 | Plant response rating, Dallisgrass (dallisgrass; [6]): 75 | Plant response rating, Dallisgrass (dallisgrass; [9]): 75 | Plant response rating, Dallisgrass (dallisgrass; [1]): 85 | Plant response rating, Dallisgrass (dallisgrass; [2]): 100 | Plant response rating, Dallisgrass (dallisgrass; [4]): 100 | Plant response rating, Dallisgrass (dallisgrass; [7]): 70 | Plant response rating, Dallisgrass (dallisgrass; [8]): 50 | Plant response rating, Sandbur (southern sandbur; [5]): 80 | Plant response rating, Sandbur (southern sandbur; [6]): 70 | Plant response rating, Sandbur (southern sandbur; [9]): 10 | Plant response rating, Sandbur (southern sandbur; [1]): 60 | Plant response rating, Sandbur (southern sandbur; [2]): 100 | Plant response rating, Sandbur (southern sandbur; [4]): 100 | Plant response rating, Sandbur (southern sandbur; [7]): 40 | Plant response rating, Sandbur (southern sandbur; [8]): 30 | Plant response rating, Surinam Grass (Surinam grass; [5]): 90 | Plant response rating, Surinam Grass (Surinam grass; [6]): 75 | Plant response rating, Surinam Grass (Surinam grass; [1]): 95 | Plant response rating, Surinam Grass (Surinam grass; [4]): 100 | Plant response rating, Surinam Grass (Surinam grass; [7]): 75 | Plant response rating, Surinam Grass (Surinam grass; [8]): 70 | Plant response rating, Foxtail, Green (green foxtail; [5]): 100 | Plant response rating, Foxtail, Green (green foxtail; [6]): 85 | Plant response rating, Foxtail, Green (green foxtail; [9]): 50 | Plant response rating, Foxtail, Green (green foxtail; [1]): 100 | Plant response rating, Foxtail, Green (green foxtail; [2]): 100 | Plant response rating, Foxtail, Green (green foxtail; [4]): 100 | Plant response rating, Foxtail, Green (green foxtail; [7]): 70 | Plant response rating, Foxtail, Green (green foxtail; [8]): 30 | Plant response rating, Signalgrass (broadleaf signalgrass; [5]): 80 | Plant response rating, Signalgrass (broadleaf signalgrass; [6]): 70 | Plant response rating, Signalgrass (broadleaf signalgrass; [9]): 60 | Plant response rating, Signalgrass (broadleaf signalgrass; [1]): 80 | Plant response rating, Signalgrass (broadleaf signalgrass; [2]): 100 | Plant response rating, Signalgrass (broadleaf signalgrass; [4]): 100 | Plant response rating, Signalgrass (broadleaf signalgrass; [7]): 60 | Plant response rating, Signalgrass (broadleaf signalgrass; [8]): 20 | Plant response rating, Bindweed, Field (field bindweed; [5]): 95 | Plant response rating, Bindweed, Field (field bindweed; [6]): 80 | Plant response rating, Bindweed, Field (field bindweed; [9]): 10 | Plant response rating, Bindweed, Field (field bindweed; [1]): 60 | Plant response rating, Bindweed, Field (field bindweed; [2]): 95 | Plant response rating, Bindweed, Field (field bindweed; [4]): 100 | Plant response rating, Bindweed, Field (field bindweed; [7]): 70 | Plant response rating, Bindweed, Field (field bindweed; [8]): 30 | Plant response rating, Guineagrass (guineagrass; [5]): 85 | Plant response rating, Guineagrass (guineagrass; [6]): 75 | Plant response rating, Guineagrass (guineagrass; [9]): 70 | Plant response rating, Guineagrass (guineagrass; [1]): 85 | Plant response rating, Guineagrass (guineagrass; [2]): 100 | Plant response rating, Guineagrass (guineagrass; [4]): 100 | Plant response rating, Guineagrass (guineagrass; [7]): 70 | Plant response rating, Guineagrass (guineagrass; [8]): 60 | Plant response rating, Ryegrass, Italian (Italian ryegrass; [5]): 85 | Plant response rating, Ryegrass, Italian (Italian ryegrass; [6]): 85 | Plant response rating, Ryegrass, Italian (Italian ryegrass; [9]): 70 | Plant response rating, Ryegrass, Italian (Italian ryegrass; [1]): 95 | Plant response rating, Ryegrass, Italian (Italian ryegrass; [2]): 100 | Plant response rating, Ryegrass, Italian (Italian ryegrass; [4]): 100 | Plant response rating, Ryegrass, Italian (Italian ryegrass; [7]): 80 | Plant response rating, Ryegrass, Italian (Italian ryegrass; [8]): 60
